Assay results: patent US20260042867A1, “ANTIBODY REPURPOSING” (priority 2022, published 2026)
pKd: −log10 of the molar value. Where two headings read alike, the source gives them in different places.

Legend:
Format in all cases: binding, SARS-COV-2
SRBD - omicron = biological target: SRBD - omicron
[1] = biological target: SARS-Cov2 SRBD and anti-alpha-Gal antibody (Severe acute respiratory syndrome coronavirus 2, UniProt P0DTC2)
[2] = tested on: Omicron S1/S2 ECD and anti-alpha-Gal antibody

SMILES | pKd (SRBD - omicron; BLI, SRBD - omicron, global 1:2 fitting) | antibody repurposing of alpha Gal antibodies (ELISA signal) [1] | pKd (SRBD - omicron) | antibody repurposing of alpha Gal antibodies (ELISA signal) [2]
COC[C@H](NC(=O)[C@@H](CCCCN)NC(=O)[C@H]1c2ccccc2C(=O)N(CCCNC(=O)Cc2ccc(CNC(=O)[C@@H](NC(=O)[C@@H](CCCCN)NC(=O)[C@H]3c4ccccc4C(=O)N(CCCNC(=O)Cc4ccc(CNC(=O)[C@H](CC5CC5)NC(=O)[C@H]5c6ccccc6C(=O)N(CCCNC(=O)[C@@H](C)NC(=O)Cc6ccc(CNC(=O)[C@H](C)NC(=O)[C@@H](CCCCN)NC(=O)[C@H]7c8ccccc8C(=O)N(CCCNC(=O)Cc8ccc(CNC(=O)[C@H](C)NC(=O)CNC(=O)[C@H]9c%10ccccc%10C(=O)N(CCCNC(=O)Cc%10ccc(CNC(=O)[C@H](C)NC(=O)[C@@H](CCC(=O)O)NC(=O)[C@H]%11c%12ccccc%12C(=O)N(CCCNC(=O)Cc%12ccc(CNC(=O)[C@H](Cc%13ccc(F)cc%13)NC(=O)[C@H]%13c%14ccccc%14C(=O)N(CCCNC(=O)[C@@H](CCC(=O)O)NC(=O)Cc%14ccc(CNC(=O)[C@H](C)NC(=O)CNC(=O)[C@H]%15c%16ccccc%16C(=O)N(CCCN)[C@@H]%15c%15ccc(CCC(=O)O)cc%15)cc%14)[C@@H]%13c%13cccc(Oc%14ccccc%14)c%13)cc%12)[C@@H]%11c%11ccc(CCC(=O)O)cc%11)cc%10)[C@@H]9c9cccnc9)cc8)[C@@H]7c7ccc(CCC(=O)O)cc7)cc6)[C@@H]5c5cccc(Oc6ccccc6)c5)cc4)[C@@H]3c3ccccc3)C(C)C)cc2)[C@@H]1c1ccc(O)cc1)C(=O)NCc1ccc(CC(N)=O)cc1 [Technein 16838-89-7] | 8.15 |  |  | 
COC[C@H](NC(=O)[C@H]1c2ccccc2C(=O)N(CCCNC(=O)[C@@H](C)NC(=O)Cc2ccc(CNC(=O)[C@H](Cc3ccc(F)cc3)NC(=O)[C@H]3c4ccccc4C(=O)N(CCCNC(=O)CNC(=O)Cc4ccc(CNC(=O)[C@H](Cc5ccc(F)cc5)NC(=O)[C@H]5c6ccccc6C(=O)N(CCCNC(=O)[C@@H](CCC(=O)O)NC(=O)Cc6ccc(CNC(=O)[C@H](C)NC(=O)[C@H]7c8ccccc8C(=O)N(CCCNC(=O)[C@@H](C)N)[C@@H]7c7ccc(CCC(=O)O)cc7)cc6)[C@@H]5c5cccc(Oc6ccccc6)c5)cc4)[C@@H]3c3ccc(O)cc3)cc2)[C@@H]1c1ccc(O)cc1)C(=O)NCc1ccc(CC(=O)NCC(=O)NCCCN2C(=O)c3ccccc3[C@H](C(=O)N[C@@H](CC3CC3)C(=O)NCc3ccc(CC(=O)N[C@H](CCC(=O)O)C(=O)NCCCN4C(=O)c5ccccc5[C@H](C(=O)N[C@@H](C)C(=O)NCc5ccc(CC(=O)NCCCN6C(=O)c7ccccc7[C@H](C(=O)N[C@H](CCCCN)C(=O)N[C@H](C(=O)NCc7ccc(CC(=O)N[C@H](C)C(=O)NCCCN8C(=O)c9ccccc9[C@H](C(=O)N[C@@H](CC9CC9)C(=O)NCc9ccc(CC(N)=O)cc9)[C@H]8c8ccc(CCC(=O)O)cc8)cc7)C(C)C)[C@H]6c6ccccc6)cc5)[C@H]4c4cccnc4)cc3)[C@H]2c2cccnc2)cc1 [Technein 16838-89-8] |  | significantly lower levels of antibody repurposing | 8.40 | significantly lower levels of antibody repurposing
